Reference: PubChem BioAssay (NCI)
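Compound exposure: 48 hours, 5 concentrations, 96-well plates. The concentration for 50% growth inhibition is given as GI50. TGI: concentration producing complete growth inhibition.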

Tests used:
Test in all cases: NCI anticancer screen, dose series, 48 h
[1] = test system: 786-0 renal
[2] = test system: A498 renal
[3] = test system: A549 NSCLC
[4] = test system: ACHN renal
[5] = test system: BT-549 breast
[6] = test system: CAKI-1 renal
[7] = test system: CCRF-CEM leukemia
[8] = test system: COLO 205 colon
[9] = test system: DU-145 prostate
[10] = test system: EKVX NSCLC
[11] = test system: HCC-2998 colon
[12] = test system: HCT-116 colon
[13] = test system: HCT-15 colon
[14] = test system: HL-60(TB) leukemia
[15] = test system: HOP-62 NSCLC
[16] = test system: HS 578T breast
[17] = test system: HT29 colon
[18] = test system: IGROV1 ovarian
[19] = test system: K-562 leukemia
[20] = test system: KM12 colon
[21] = test system: LOX IMVI melanoma
[22] = test system: M14 melanoma
[23] = test system: MALME-3M melanoma
[24] = test system: MCF7 breast
[25] = test system: MDA-MB-231 breast
[26] = test system: MDA-MB-435
[27] = test system: MOLT-4 leukemia
[28] = test system: NCI-H226 lung
[29] = test system: NCI-H23 lung
[30] = test system: NCI-H460 lung
[31] = test system: NCI-H522 lung
[32] = test system: NCI/ADR-RES ovarian
[33] = test system: OVCAR-3 ovarian
[34] = test system: OVCAR-4 ovarian
[35] = test system: OVCAR-5 ovarian
[36] = test system: OVCAR-8 ovarian
[37] = test system: PC-3 prostate
[38] = test system: RXF 393 renal
[39] = test system: SF-268 CNS
[40] = test system: SF-295 CNS
[41] = test system: SF-539 CNS
[42] = test system: SK-MEL-2 melanoma
[43] = test system: SK-MEL-28 melanoma
[44] = test system: SK-MEL-5 melanoma
[45] = test system: SK-OV-3 ovarian
[46] = test system: SN12C renal
[47] = test system: SNB-19 CNS
[48] = test system: SNB-75 CNS
[49] = test system: SR leukemia
[50] = test system: SW-620 colon
[51] = test system: T-47D breast
[52] = test system: TK-10 renal
[53] = test system: U251 CNS
[54] = test system: UACC-257 melanoma
[55] = test system: UACC-62 melanoma
[56] = test system: UO-31 renal
[57] = test system: HOP-92 NSCLC
[58] = test system: RPMI-8226 leukemia

C(=N\Nc1nnn(Cc2ccccc2)n1)/c1ccccc1
GI50 [1]: 8.54 µM | TGI [1]: > 100 µM | GI50 [2]: 5.76 µM | TGI [2]: 55.3 µM | GI50 [3]: 4.7 µM | TGI [3]: > 100 µM | GI50 [4]: 16.1 µM | TGI [4]: > 100 µM | GI50 [5]: 11.5 µM | TGI [5]: > 100000 nM | GI50 [6]: 2570 nM | TGI [6]: > 100 µM | GI50 [7]: 1710 nM | TGI [7]: > 47.5 µM | GI50 [8]: 3200 nM | TGI [8]: > 59.2 µM | GI50 [9]: 6.73 µM | TGI [9]: > 100 µM | GI50 [10]: 12.3 µM | TGI [10]: > 100 µM | GI50 [11]: 5.07 µM | TGI [11]: > 100 µM | GI50 [12]: 3820 nM | TGI [12]: > 73300 nM | GI50 [13]: 1420 nM | TGI [13]: > 100 µM | GI50 [14]: 1300 nM | TGI [14]: 11.7 µM | GI50 [15]: 4.77 µM | TGI [15]: > 52.4 µM | GI50 [16]: 13.7 µM | TGI [16]: > 89.6 µM | GI50 [17]: 1260 nM | TGI [17]: > 100 µM | GI50 [18]: 7.05 µM | TGI [18]: > 100000 nM | GI50 [19]: 430 nM | TGI [19]: > 100 µM | GI50 [20]: 905 nM | TGI [20]: > 100 µM | GI50 [21]: 6 µM | TGI [21]: > 100000 nM | GI50 [22]: 1310 nM | TGI [22]: 26.5 µM | GI50 [23]: 4.64 µM | TGI [23]: > 82.7 µM | GI50 [24]: 2410 nM | TGI [24]: > 64.2 µM | GI50 [25]: 7.54 µM | TGI [25]: > 79.6 µM | GI50 [26]: 367 nM | TGI [26]: 2.76 µM | GI50 [27]: 3820 nM | TGI [27]: > 100 µM | GI50 [28]: 10.4 µM | TGI [28]: > 100000 nM | GI50 [29]: 6.97 µM | TGI [29]: > 53.8 µM | GI50 [30]: 2510 nM | TGI [30]: > 33.8 µM | GI50 [31]: 560 nM | GI50 [32]: 545 nM | TGI [32]: 8.78 µM | GI50 [33]: 2260 nM | TGI [33]: 7.95 µM | GI50 [34]: > 100 µM | TGI [34]: > 100 µM | GI50 [35]: > 43.7 µM | TGI [35]: > 96.6 µM | GI50 [36]: 6.72 µM | TGI [36]: > 100000 nM | GI50 [37]: 6.82 µM | TGI [37]: > 100 µM | GI50 [38]: 2580 nM | TGI [38]: 20.2 µM | GI50 [39]: 8.28 µM | TGI [39]: > 89.3 µM | GI50 [40]: 3440 nM | TGI [40]: 56.3 µM | GI50 [41]: 3290 nM | TGI [41]: 32.5 µM | GI50 [42]: 1020 nM | TGI [42]: 6.28 µM | GI50 [43]: 8.47 µM | TGI [43]: > 100 µM | GI50 [44]: 2020 nM | TGI [44]: > 40.7 µM | GI50 [45]: 3.29 µM | TGI [45]: 34.7 µM | GI50 [46]: 9.46 µM | TGI [46]: > 100 µM | GI50 [47]: 9.95 µM | TGI [47]: 64.8 µM | GI50 [48]: 3670 nM | TGI [48]: 36.8 µM | GI50 [49]: 301 nM | TGI [49]: 2210 nM | GI50 [50]: 1730 nM | TGI [50]: > 100 µM | GI50 [51]: 4040 nM | TGI [51]: > 100 µM | GI50 [52]: 20 µM | TGI [52]: > 100 µM | GI50 [53]: 3470 nM | TGI [53]: 24.9 µM | TGI [54]: > 100000 nM | GI50 [55]: 2200 nM | TGI [55]: > 100000 nM | GI50 [56]: 9.68 µM | TGI [56]: > 100 µM

O=c1c(F)cn(Cc2ccccc2CCl)c(=O)n1Cc1ccccc1CCl
GI50 [1]: 2.09 µM | TGI [1]: 4.44 µM | GI50 [2]: 1.58 µM | TGI [2]: 5.97 µM | GI50 [3]: 1.83 µM | TGI [3]: 4.29 µM | GI50 [4]: 1.58 µM | TGI [4]: 3.04 µM | GI50 [5]: 1.41 µM | TGI [5]: 2910 nM | GI50 [6]: 1710 nM | TGI [6]: 3.58 µM | GI50 [7]: 1040 nM | TGI [7]: 3.5 µM | GI50 [8]: 1700 nM | TGI [8]: 3.52 µM | GI50 [9]: 1.79 µM | TGI [9]: 3.42 µM | GI50 [10]: 3.07 µM | TGI [10]: 9.22 µM | GI50 [11]: 2.09 µM | TGI [11]: 4.47 µM | GI50 [12]: 1110 nM | TGI [12]: 2840 nM | GI50 [13]: 1830 nM | TGI [13]: 4.45 µM | GI50 [14]: 1510 nM | TGI [14]: 3.63 µM | GI50 [15]: 2.35 µM | TGI [15]: 4.84 µM | GI50 [57]: 2350 nM | TGI [57]: 6.85 µM | GI50 [16]: 1.92 µM | TGI [16]: 6.93 µM | GI50 [17]: 2010 nM | TGI [17]: 4.71 µM | GI50 [18]: 1.33 µM | TGI [18]: 2990 nM | GI50 [19]: 1890 nM | TGI [19]: > 100 µM | GI50 [20]: 1740 nM | TGI [20]: 3.68 µM | GI50 [21]: 1.23 µM | TGI [21]: 2780 nM | GI50 [22]: 1690 nM | TGI [22]: 4.05 µM | GI50 [23]: 2.2 µM | TGI [23]: 4.59 µM | GI50 [24]: 1160 nM | TGI [24]: 6.11 µM | GI50 [25]: 1.93 µM | TGI [25]: 4.92 µM | GI50 [26]: 1680 nM | TGI [26]: 3.4 µM | GI50 [27]: 1770 nM | TGI [27]: 4.69 µM | GI50 [28]: 0.539 µM | TGI [28]: 2710 nM | GI50 [29]: 2.42 µM | TGI [29]: 7.05 µM | GI50 [30]: 2080 nM | TGI [30]: 4.9 µM | GI50 [31]: 1450 nM | TGI [31]: 3.01 µM | GI50 [32]: 2970 nM | TGI [32]: 11.8 µM | GI50 [33]: 1540 nM | TGI [33]: 3.07 µM | GI50 [34]: 3.5 µM | TGI [34]: 12.8 µM | GI50 [35]: 5.07 µM | TGI [35]: 11 µM | GI50 [36]: 0.977 µM | TGI [36]: 2990 nM | GI50 [37]: 2.54 µM | TGI [37]: 8.83 µM | GI50 [58]: 795 nM | TGI [58]: 8.46 µM | GI50 [39]: 2.04 µM | TGI [39]: 4.81 µM | GI50 [40]: 2140 nM | TGI [40]: 6.16 µM | GI50 [41]: 2060 nM | TGI [41]: 4.73 µM | GI50 [42]: 1540 nM | TGI [42]: 3.05 µM | GI50 [43]: 1.4 µM | TGI [43]: 3.32 µM | GI50 [44]: 1650 nM | TGI [44]: 3.44 µM | GI50 [45]: 5.88 µM | TGI [45]: 15.1 µM | GI50 [46]: 2.75 µM | TGI [46]: 10.4 µM | GI50 [47]: 3.5 µM | TGI [47]: 13.3 µM | GI50 [48]: 1970 nM | TGI [48]: 6.36 µM | GI50 [49]: 796 nM | TGI [49]: 3070 nM | GI50 [50]: 1450 nM | TGI [50]: 3.73 µM | GI50 [51]: 1570 nM | TGI [51]: 4.11 µM | GI50 [52]: 2.15 µM | TGI [52]: 5.44 µM | GI50 [53]: 1550 nM | TGI [53]: 3.49 µM | TGI [54]: 2440 nM | GI50 [55]: 1330 nM | TGI [55]: 2940 nM | GI50 [56]: 1.99 µM | TGI [56]: 5.3 µM
